The target of the experiment is vanilloid receptor 1 (VR1/TRPV1) (Homo sapiens (Human), UniProt Q8NER1). The experiment is described as follows: FLIPR assay, Ca2+ influx in CHO K1 cells transfected with the human VR1 gene. Format: cell-based. The settings on record: for Ki: displacement of capsaicin 100 nM, Ki from IC50 by Cheng-Prusoff equation, read-out: (f) Ki (human) [nM] Cap; for compound-alone effect on Ca2+ influx (agonist / partial agonist): compound 5 μM, % activation compared with control capsaicin 10 μM; for (f) Ki (human) Cap: no effect: inhibition <10% @5 μM. The procedure: Furthermore, preference may be given to compounds according to the first aspect of the invention that cause a 50% displacement of capsaicin, which is present at a concentration of 100 nM, in a FLIPR assay with CHO K1 cells which were transfected with the human VR1 gene at a concentration of less than 2 000 nM, preferably less than 1 000 nM, particularly preferably less than 300 nM, most particularly preferably less than 100 nM, even more preferably less than 75 nM, additionally preferably less than 50 nM, most preferably less than 10 nM. In the process, the Ca^2+ influx is quantified in the FLIPR assay with the aid of a Ca^2+-sensitive dye (type Fluo-4, Molecular Probes Europe BV, Leiden, the Netherlands) in a fluorescent imaging plate reader (FLIPR, Molecular Devices, Sunnyvale, USA), as described hereinafter.
The FLIPR protocol consists of 2 substance additions during a kinetic measurement. First the compounds to be tested (5 μM) are pipetted onto the cells and the Ca^2+ influx is determined in comparison to the control (capsaicin 10 μM), providing the result as % activation and representing the compound-alone effect (calculation at peak signal related to baseline). […] After 5 min incubation, the Ca^2+ influx is related to an injection of 100 nM of capsaicin and thereby the antagonistic effect of the test compounds detected.
Desensitising agonists and antagonists lead to suppression of the Ca^2+ influx. The % inhibition is calculated compared to the maximum achievable inhibition with 10 μM of capsaicin. Triple analyses (n=3) are carried out and repeated in at least 3 independent experiments.
Starting from the percentage displacement caused by different concentrations of the compounds to be tested of general formula I, IC50 inhibitory concentrations which cause a 50-% displacement of capsaicin were calculated. Ki values for the test substances were obtained by conversion by means of the Cheng-Prusoff equation (Cheng, Prusoff; Biochem. Pharmacol. 22, 3099-3108, 1973).
Chinese hamster ovary cells (CHO K1 cells, European Collection of Cell Cultures (ECACC) United Kingdom) are stably transfected with the VR1 gene. For functional testing, these cells are plated out on poly-D-lysine-coated black 96-well plates having a clear base (BD Biosciences, Heidelberg, Germany) at a density of 25,000 cells/well. The cells are incubated overnight at 37° C. and 5% CO2 in a culture medium (Ham's F12 nutrient mixture, 10% by volume of FCS (foetal calf serum), 18 μg/ml of L-proline). The next day the cells are incubated with Fluo-4 (Fluo-4 2 μM, 0.01% by volume of Pluronic F127, Molecular Probes in HBSS (Hank's buffered saline solution), Gibco Invitrogen GmbH, Karlsruhe, Germany) for 30 min at 37° C. Subsequently, the plates are washed three times with HBSS buffer and after further incubation for 15 min at RT used for Ca^2+ measurement in a FLIPR assay. The Ca^2+-dependent fluorescence is measured before and after the addition of the substances to be tested (λex wavelength=488 nm, λem=540 nm). Quantification is carried out by measuring the highest fluorescence intensity (FC, fluorescence counts) over time.

23 compounds from patent US9771359B1, “Substituted oxazole- and thiazole-based carboxamide and urea derivatives as vanilloid receptor ligands II” (MEDIFRON DBT INC., priority 2014, dated 2017) can be followed below.

Chain of vanilloid receptor 1 (VR1/TRPV1) (Q8NER1 whole entry): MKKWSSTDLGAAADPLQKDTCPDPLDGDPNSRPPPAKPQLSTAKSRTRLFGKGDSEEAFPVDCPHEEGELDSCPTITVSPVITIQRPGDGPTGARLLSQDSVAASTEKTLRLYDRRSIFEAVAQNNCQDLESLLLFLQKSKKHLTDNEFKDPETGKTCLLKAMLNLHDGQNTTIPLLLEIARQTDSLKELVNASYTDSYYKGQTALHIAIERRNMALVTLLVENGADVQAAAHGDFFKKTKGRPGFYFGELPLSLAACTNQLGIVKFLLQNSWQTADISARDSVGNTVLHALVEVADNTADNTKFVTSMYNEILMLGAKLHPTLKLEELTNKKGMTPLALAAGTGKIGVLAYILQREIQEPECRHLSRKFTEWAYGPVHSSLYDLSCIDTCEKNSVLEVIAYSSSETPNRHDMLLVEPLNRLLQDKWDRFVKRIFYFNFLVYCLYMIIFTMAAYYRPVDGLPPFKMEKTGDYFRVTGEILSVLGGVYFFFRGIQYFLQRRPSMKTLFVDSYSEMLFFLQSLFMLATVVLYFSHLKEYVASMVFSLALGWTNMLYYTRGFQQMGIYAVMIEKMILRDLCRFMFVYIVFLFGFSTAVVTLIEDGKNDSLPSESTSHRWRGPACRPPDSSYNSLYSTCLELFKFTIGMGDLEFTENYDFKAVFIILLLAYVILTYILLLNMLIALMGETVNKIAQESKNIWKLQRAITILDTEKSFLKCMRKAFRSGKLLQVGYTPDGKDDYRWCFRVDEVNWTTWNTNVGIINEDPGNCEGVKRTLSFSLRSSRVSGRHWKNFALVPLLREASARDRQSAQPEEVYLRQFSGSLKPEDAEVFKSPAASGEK

As to `CC(C(=O)NCc1sc(C(F)(F)F)nc1-c1cccc(Cl)c1)c1ccc(NCCO)nc1` (single isomer, unassigned) [EX-15, N-((4-(3-chlorophenyl)-2-(trifluoromethyl)thiazol-5-yl)methyl)-2-(6-((2-hydroxyethyl)amino)pyridin-3-yl)propanamide], the Ki came out at 0.4 nM. Regarding `CC(C(=O)NCc1sc(C(F)(F)F)nc1-c1cccc(Cl)c1)c1ccc(NCCO)nc1` (single isomer, unassigned) [EX-16, N-((4-(3-chlorophenyl)-2-(trifluoromethyl)thiazol-5-yl)methyl)-2-(6-((2-hydroxyethyl)amino)pyridin-3-yl)propanamide], the Ki amounted to 41.9 nM. In the case of `CC(C(=O)NCc1oc(C(F)(F)F)nc1-c1cccc(Cl)c1)c1ccc(NCCO)nc1` (single isomer, unassigned) [EX-17, N-((4-(3-chlorophenyl)-2-(trifluoromethyl)oxazol-5-yl)methyl)-2-(6-((2-hydroxyethyl)amino)pyridin-3-yl)propanamide], the Ki worked out at 0.7 nM. `CC(C(=O)NCc1oc(C(F)(F)F)nc1-c1cccc(Cl)c1)c1ccc(NCCO)nc1` (single isomer, unassigned) [EX-18, N-((4-(3-chlorophenyl)-2-(trifluoromethyl)oxazol-5-yl)methyl)-2-(6-((2-hydroxyethyl)amino)pyridin-3-yl)propanamide]: the Ki was found to be 96.7 nM. `CC(C(=O)NCc1sc(C(F)(F)F)nc1-c1cccc(Cl)c1)c1ccc(CCO)c(F)c1` (centres unmarked) [EX-01, N-((4-(3-chlorophenyl)-2-(trifluoromethyl)thiazol-5-yl)methyl)-2-(3-fluoro-4-(2-hydroxyethyl)phenyl)-propanamide]: the Ki stood at 1.4 nM. On to `CC(C(=O)NCc1oc(C(F)(F)F)nc1-c1cccc(Cl)c1)c1ccc(CCO)c(F)c1` (centres unmarked) [EX-02, N-((4-(3-chlorophenyl)-2-(trifluoromethyl)oxazol-5-yl)methyl)-2-(3-fluoro-4-(2-hydroxyethyl)-phenyl)propanamide], for which the Ki is 28.4 nM.

On to `CC(C(=O)NCc1sc(C(C)(C)C)nc1-c1cccc(Cl)c1)c1ccc(CNS(C)(=O)=O)c(F)c1` (centres unmarked) [EX-03, N-((2-(tert-butyl)-4-(3-chlorophenyl)thiazol-5-yl)methyl)-2-(3-fluoro-4-(methylsulfonamido-methyl)phenyl)propanamide], for which the Ki is 0.6 nM.

Turning to `Cc1cccc(-c2nc(C(C)(C)C)sc2CNC(=O)C(C)c2ccc(CNS(C)(=O)=O)c(F)c2)c1` (centres unmarked) [EX-04, N-((2-(tert-butyl)-4-(m-tolyl)thiazol-5-yl)methyl)-2-(3-fluoro-4-(methylsulfonamidomethyl)phenyl)propanamide], the “compound-alone effect on Ca2+ influx (agonist / partial agonist)” value was “pAG (A Ca^2+ influx of 10%-60% reveals a partial agonist (pAG))” and the Ki worked out at 1 nM. Take `CC(C(=O)NCc1oc(C(F)(F)F)nc1-c1cccc(Cl)c1)c1ccc(CNS(N)(=O)=O)cc1` (centres unmarked) [EX-05, N-((4-(3-chlorophenyl)-2-(trifluoromethyl)oxazol-5-yl)methyl)-2-(4-((sulfamoylamino)methyl)-phenyl)propanamide]: the Ki came to 7.5 nM. Turning to `CC(C(=O)NCc1sc(C(F)(F)F)nc1-c1cccc(Cl)c1)c1ccc(CNS(N)(=O)=O)cc1` (centres unmarked) [EX-06, N-((4-(3-chlorophenyl)-2-(trifluoromethyl)thiazol-5-yl)methyl)-2-(4-((sulfamoylamino)methyl)-phenyl)propanamide], the Ki came out at 0.7 nM. As to `CC(C(=O)NCc1sc(C(C)(C)C)nc1-c1cccc(Cl)c1)c1ccc(CO)c(F)c1` (centres unmarked) [EX-07, N-((2-(tert-butyl)-4-(3-chlorophenyl)thiazol-5-yl)methyl)-2-(3-fluoro-4-(hydroxymethyl)phenyl)propanamide], the “compound-alone effect on Ca2+ influx (agonist / partial agonist)” value is “AG (a Ca^2+ influx of >60% relates to a pure agonist (AG))”. Turning to `Cc1cccc(-c2nc(C(C)(C)C)sc2CNC(=O)C(C)c2ccc(CO)c(F)c2)c1` (centres unmarked) [EX-08, N-((2-(tert-butyl)-4-(m-tolyl)thiazol-5-yl)methyl)-2-(3-fluoro-4-(hydroxymethyl)phenyl)propanamide], the “compound-alone effect on Ca2+ influx (agonist / partial agonist)” value is “AG (a Ca^2+ influx of >60% relates to a pure agonist (AG))”. As to `CC(C(=O)NCc1oc(C(F)(F)F)nc1-c1cccc(Cl)c1)c1ccc(C2(O)COC2)cc1` (centres unmarked) [EX-09, N-((4-(3-chlorophenyl)-2-(trifluoromethyl)oxazol-5-yl)methyl)-2-(4-(3-hydroxyoxetan-3-yl)phenyl)propanamide], the “compound-alone effect on Ca2+ influx (agonist / partial agonist)” value was “pAG (A Ca^2+ influx of 10%-60% reveals a partial agonist (pAG))” and the Ki was found to be 73.8 nM. Consider `CC(C(=O)NCc1sc(C(F)(F)F)nc1-c1cccc(Cl)c1)c1ccc(C2(O)COC2)cc1` (centres unmarked) [EX-10, N-((4-(3-chlorophenyl)-2-(trifluoromethyl)thiazol-5-yl)methyl)-2-(4-(3-hydroxyoxetan-3-yl)phenyl)propanamide], for which the “compound-alone effect on Ca2+ influx (agonist / partial agonist)” value is recorded as “pAG (A Ca^2+ influx of 10%-60% reveals a partial agonist (pAG))” and the Ki amounted to 8.8 nM. For `CC(C(=O)NCc1oc(C(F)(F)F)nc1-c1cccc(Cl)c1)c1cnc(CCS(C)(=O)=O)c(F)c1` (centres unmarked) [EX-11, N-((4-(3-chlorophenyl)-2-(trifluoromethyl)oxazol-5-yl)methyl)-2-(5-fluoro-6-(2-(methylsulfonyl)ethyl)pyridin-3-yl)propanamide], the inhibitory constant (Ki) worked out at 53.1 nM.

On to `CC(C(=O)NCc1sc(C(F)(F)F)nc1-c1cccc(Cl)c1)c1cnc(CCS(C)(=O)=O)c(F)c1` (centres unmarked) [EX-12, N-((4-(3-chlorophenyl)-2-(trifluoromethyl)thiazol-5-yl)methyl)-2-(5-fluoro-6-(2-(methylsulfonyl)ethyl)pyridin-3-yl)propanamide], for which the Ki is 1.1 nM.

For the compound `CC(C(=O)NCc1oc(C(F)(F)F)nc1-c1cccc(Cl)c1)c1ccc(NCCO)nc1` (centres unmarked) [EX-13, N-((4-(3-chlorophenyl)-2-(trifluoromethyl)oxazol-5-yl)methyl)-2-(6-((2-hydroxyethyl)amino)pyridin-3-yl)propanamide], the Ki came out at 5.2 nM. Same read-out and setting: in the case of `CC(C(=O)NCc1sc(C(F)(F)F)nc1-c1cccc(Cl)c1)c1ccc(NCCO)nc1` (centres unmarked) [EX-14, N-((4-(3-chlorophenyl)-2-(trifluoromethyl)thiazol-5-yl)methyl)-2-(6-((2-hydroxyethyl)amino)pyridin-3-yl)propanamide] it was 0.7 nM; in that of `CC(C(=O)NCc1oc(C(F)(F)F)nc1-c1cccc(Cl)c1)c1cnc(CO)c(F)c1` (centres unmarked) [EX-19, N-((4-(3-chlorophenyl)-2-(trifluoromethyl)oxazol-5-yl)methyl)-2-(5-fluoro-6-(hydroxymethyl)pyridin-3-yl)propanamide], 13.8 nM. `CC(C(=O)NCc1sc(C(F)(F)F)nc1-c1cccc(Cl)c1)c1cnc(CO)c(F)c1` (centres unmarked) [EX-20, N-((4-(3-chlorophenyl)-2-(trifluoromethyl)thiazol-5-yl)methyl)-2-(5-fluoro-6-(hydroxymethyl)pyridin-3-yl)propanamide]: the Ki turned out to be 0.3 nM. Turning to `CC(C(=O)NCc1oc(C(F)(F)F)nc1-c1cccc(Cl)c1)c1cnc(CO)c(F)c1` (centres unmarked) [EX-21, N-((4-(3-chlorophenyl)-2-(trifluoromethyl)oxazol-5-yl)methyl)-2-(5-fluoro-6-(hydroxymethyl)pyridin-3-yl)propanamide], the “(f) Ki (human) Cap: no effect” value is given as “ne (ne=no effect (<10% @5 μM))”. Turning to `CC(C(=O)NCc1oc(C(F)(F)F)nc1-c1cccc(Cl)c1)c1cnc(CO)c(F)c1` (centres unmarked) [EX-22, N-((4-(3-chlorophenyl)-2-(trifluoromethyl)oxazol-5-yl)methyl)-2-(5-fluoro-6-(hydroxymethyl)pyridin-3-yl)propanamide], the “(f) Ki (human) Cap: no effect” value is reported as “ne (ne=no effect (<10% @5 μM))”.

For the compound `CC(C(=O)NCc1oc(C(F)(F)F)nc1-c1cccc(Cl)c1)c1ccc(CNS(N)(=O)=O)c(F)c1` (centres unmarked) [EX-23, N-((4-(3-chlorophenyl)-2-(trifluoromethyl)oxazol-5-yl)methyl)-2-(3-fluoro-4-((sulfamoylamino)methyl)phenyl)propanamide], the Ki amounted to 4.7 nM.

By Ki is commonly meant the equilibrium dissociation constant of an inhibitor or competing ligand from its target.
